Experimental data reported in publication PMC10060569 (Frontiers in Pharmacology, 2023).

Key:
[1] = cited from earlier work
[2] = molecular target: T1, native pig P2X2/3Rs in DRG neurons (Sus scrofa, UniProt F1RI70+I3L7H5); assay: Whole-cell patch-clamp of α,β-meATP-induced currents in pig DRG neurons
T1 sequence (I3L7H5 1-397): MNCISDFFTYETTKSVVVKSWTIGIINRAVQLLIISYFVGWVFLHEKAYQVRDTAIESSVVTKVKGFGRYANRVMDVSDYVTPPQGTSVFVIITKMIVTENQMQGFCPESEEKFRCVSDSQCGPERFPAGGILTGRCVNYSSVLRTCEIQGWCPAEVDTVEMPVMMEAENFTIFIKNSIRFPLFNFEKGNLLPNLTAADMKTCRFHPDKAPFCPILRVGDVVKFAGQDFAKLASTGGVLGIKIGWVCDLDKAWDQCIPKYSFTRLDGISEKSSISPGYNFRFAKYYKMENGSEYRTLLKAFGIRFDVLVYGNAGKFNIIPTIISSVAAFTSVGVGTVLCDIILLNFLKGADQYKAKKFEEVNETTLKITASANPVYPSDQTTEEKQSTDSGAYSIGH
T1 sequence (F1RI70 1-417): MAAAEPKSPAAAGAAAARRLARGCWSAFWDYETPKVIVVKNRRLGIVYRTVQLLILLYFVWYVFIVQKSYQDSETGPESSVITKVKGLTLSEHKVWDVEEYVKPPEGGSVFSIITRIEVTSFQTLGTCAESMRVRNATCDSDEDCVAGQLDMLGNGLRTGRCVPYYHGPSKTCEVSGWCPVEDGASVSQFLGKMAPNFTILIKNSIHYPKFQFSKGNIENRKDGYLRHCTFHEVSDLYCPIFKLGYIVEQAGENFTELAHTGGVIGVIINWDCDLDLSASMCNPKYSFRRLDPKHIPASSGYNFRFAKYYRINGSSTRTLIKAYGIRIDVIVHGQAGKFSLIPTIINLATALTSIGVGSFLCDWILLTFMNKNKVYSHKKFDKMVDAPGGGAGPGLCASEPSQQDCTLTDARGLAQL
Description: For this purpose, pigs of the German Landrace breed, with an average age of 15 weeks (14.6 SD2.7) and weight of 47.3 kg (SD11.2), were euthanized using an overdose of pentobarbital 60 mg/kg body weight. Subsequently, the DRG were collected. The DRG of pigs were transferred on ice, and fine excision was performed in ice-cold DMEM F12 medium containing 10% FBS and treated with 1 mg/ml collagenase P, 1 mg/ml trypsin T1426, and 0.1 mg/ml DNAse for digestion. Then, the DRG were cut into small pieces inside the digestion medium for surface enlargement and incubated at 37°C and 5% CO2 for 120 ±30 min. After approximately 60 min in the digestion medium, the DRG were triturated using a glass pipette. After the full incubation time, they were triturated thrice using custom-pulled glass pipettes with decreasing tip diameters (from ∼1.1–1.2 to ∼0.3–0.4 mm). For further purification, the DRG were centrifuged at 500 G and 4°C twice for 4 minutes each, and the pellets were suspended in DMEM F12 with 10% FBS. They were subsequently separated from lighter cell fragments and myelin by centrifugation of a Percoll gradient containing a 60% Percoll and a 25% Percoll gradient for 20 min at 500 G. DRG neurons were plated on coverslips coated with poly-D-lysine (100 μg/ml), laminin (10 μg/ml), and fibronectin (10 μg/ml). Neurons were then cultured in neurobasal A medium supplemented with B27, penicillin, streptomycin, and L-glutamine and used for voltage-clamp recordings after 12–72 h in culture.
Whole-cell voltage-clamp recordings of DRG neurons were performed using glass electrodes with micropipette tip resistances of 1.3–3.5 MΩ, pulled and fire-polished with a Zeitz DMZ-puller. The intracellular solution contained 10 mM NaCl, 140 mM CsF, 10 mM HEPES, 1 mM EGTA, 5 mM glucose, and 5 mM TEA-Cl (adjusted to pH 7.3 using CsOH). The extracellular bathing solution contained 140 mM NaCl, 3 mM KCl, 1 mM MgCl2, 1 mM CaCl2, 10 mM HEPES, and 20 mM glucose (adjusted to pH 7.4 using NaOH). The liquid junction potential was corrected by −7.8 mV. […]

G189A/S15V-hP2X3R = assay: TEVC of ATP-induced currents, G189A/S15V-hP2X3R mutant in X. laevis oocytes; type: cell-based, human; conditions: ± SEM
Description: Ion currents mediated by P2X receptors were evoked by the indicated concentration of ATP or α,β-meATP and were recorded 1 or 2 days after cRNA injection at ambient temperature at a holding potential of −60 mV by two-electrode voltage clamp (TEVC) as previously described ([Hausmann et al., 2006]). Calcium-free ORi^− solution (90 mM NaCl, 1 mM KCl, 2 mM MgCl2, 10 mM HEPES, pH 7.4) was used to avoid bias due to calcium-activated chloride channels (CaCC) endogenously expressed in X. laevis oocytes ([Miledi, 1982]; [Methfessel et al., 1986]). […]
In the case of fast-desensitizing P2XR subtypes (P2X1R and P2X3R), ATP is applied five times in repetition, and the ATP-induced current amplitude in the presence (after pre-incubation) of the antagonist (fourth application) is compared to the arithmetic mean of flanking control ATP-induced current amplitudes in the absence of the antagonist (third and fifth ATP application). […] The correction factor was calculated as the ratio of the fourth ATP-induced current amplitude to the third amplitude (Eq. 3) when the experiment was performed in the absence of the antagonist. […] Since the magnitude of the run-down varies from day to day and batch to batch of oocytes, the correction factor was determined on each day of the experiments and was calculated as the arithmetic mean of several recordings (at least 3–5 and on average 5) on each day.

[3] = 100 µM diclofenac, 10 µM α,β-meATP, n = 11

O=C(O)Cc1ccccc1Nc1c(Cl)cccc1Cl [Diclofenac, diclofenac]
suspected cases of ageusia, dysgeusia, or taste disorders reported in the European Union ([1]; EudraVigilance up to 28/11/2022, ref http://www.adrreports.eu/de/): more than 110 cases | patients reporting an impaired taste sensation ([1]; prospective randomized clinical trial, postoperative administration, ref Attri et al., 2015): 58% | mean block ± SD, fourth application vs. mean of third and fifth application [2, 3]: 70.9 ± 37.2% | mean block ± SD, fourth application vs. preceding third application [2, 3]: 70.2 ± 34.3% | inhibition at 100 µM ([2]; DRG neuron, read-out: inhibition of α,β-meATP-elicited whole-cell currents by 100 µM diclofenac): 70.5% | % inhibition of 10 µM ATP-induced currents by 10 µM diclofenac (G189A/S15V-hP2X3R): 6.4% ± 3.0%
